According to PubChem BioAssay AID1421 (Emory University Molecular Libraries Screening Center, 2008):
Values joined by “and” are separate entries in the source; they are usually repeats but may differ in a detail not shown here. Equal entries are not always repeated. Active and inactive are the calls of the source. No rule for the calls is given here.

Each compound was assayed against Prostaglandin E2 receptor EP2 subtype (Homo sapiens) (UniProt P43116) (assay: EP2 receptor modulators, dose response, cell-based, human EP2, PGE2 EC50 shift (AID 1421)). Details: EP2-expressing cells, PGE2 EC50 shift by compound.
Chain of Prostaglandin E2 receptor EP2 subtype (Homo sapiens) (P43116 whole entry, looked up): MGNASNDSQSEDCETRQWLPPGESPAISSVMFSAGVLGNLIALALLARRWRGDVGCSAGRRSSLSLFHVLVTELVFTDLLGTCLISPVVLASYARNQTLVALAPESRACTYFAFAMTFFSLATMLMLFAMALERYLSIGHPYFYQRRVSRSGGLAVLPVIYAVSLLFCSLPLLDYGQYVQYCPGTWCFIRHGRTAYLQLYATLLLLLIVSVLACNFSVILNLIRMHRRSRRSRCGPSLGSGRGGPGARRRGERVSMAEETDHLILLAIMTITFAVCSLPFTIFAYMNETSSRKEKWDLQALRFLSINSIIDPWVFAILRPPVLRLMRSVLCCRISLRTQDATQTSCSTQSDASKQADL

SMILES | outcome
Cc1nn2c(c1-c1ccccc1)N=C(c1ccco1)CC2c1ccccc1 (stereo not given) | active
CC(C)CCNC(=O)c1c(N)n(CC2CCCO2)c2nc3ccccc3nc12 (stereo not given) | active
Cc1noc(C)c1CSc1ncnc2sc3c(c12)CCC3 | active
OC(COc1ccccc1)Cn1c2ccccc2c2ccccc21 (stereo not given) | active
CCSc1cc(N2CCOCC2)nc(-c2ccccc2)n1 | active
Cc1ccccc1C(=N)c1ccccc1Cc1cccc2ccccc12 | active
CC(=O)N(Cc1cccs1)Cc1cc2ccc(C)c(C)c2nc1Cl | active
COC1(C)CC2C(CC1OC(=O)c1cc([N+](=O)[O-])cc([N+](=O)[O-])c1)C2(C)C (stereo not given) | active
CCC1COC(c2cccn2Cc2ccc(Cl)cc2)=N1 (stereo not given) | active
COc1cc(-c2nc(-c3cccc(C)c3)no2)cc(OC)c1OC | active
Cc1ccc2nc(Nc3ccc4[nH]c(=O)[nH]c4c3)c(-n3nc(C)cc3C)nc2c1 | active
CCOC(=O)c1c(NC(=O)c2cccs2)sc(C)c1CC | active
CCOC(=O)c1cc(CC)sc1NC(=O)c1cc(OC)c(OC)c(OC)c1 | active
O=C(Nc1ccccc1N1CCN(c2ccccc2)CC1)C12CC3CC(CC(C3)C1)C2 | active

Same assay, conditions: EP2-expressing cells, PGE2 EC50 shift by compound; measured here: PGE2 EC50 at 6.7 uM compound

SMILES | PGE2 EC50 with compound
CC[C@@H]1C(=O)OC[C@@H]1Cc1cncn1C | 1.8 nM
O=c1c2ccccc2c2ccccc2c(=O)n1Cc1ccco1 | 1.09 nM
N#CN=C1SCCS1 | 0.92 nM
Cc1cc(C)n(-c2nc(C)nc3c2cnn3-c2ccccc2)n1 | 1.43 nM
CCN(CC)P(=O)(Nc1ccccc1Br)c1ccc(N(C)C)cc1NC(=O)c1ccco1 (stereo not given) | 1.19 nM
Cc1ccc(Cl)cc1NC(=S)N(Cc1ccco1)C(C)c1cccs1 (stereo not given) | 1.51 nM
Cc1nn2c(c1-c1ccccc1)N=C(c1ccco1)CC2c1ccccc1 (stereo not given) | 0.8 nM
O=C(O)c1csc(N/N=C/c2ccc(Br)cc2)n1 | 0.89 nM
Cc1noc(C)c1CSc1ncnc2sc(C)c(C)c12 | 1.38 nM
CC(C)CCNC(=O)c1c(N)n(CC2CCCO2)c2nc3ccccc3nc12 (stereo not given) | 0.95 nM
COc1ccc(-c2nn3c(-c4ccccc4)nnc3s2)cc1 | 0.66 nM
CCc1nc(SCC(=O)Nc2nc3c(s2)CCCC3)c2ccccc2n1 | 1.51 nM
N#Cc1c(-c2cccs2)nc(SCc2ccc(Cl)cc2)[nH]c1=O | 2.85 nM
CN(C)c1oc(-c2ccccc2Cl)nc1P(=O)(c1ccccc1)c1ccccc1 | 1.17 nM
CCSc1ccccc1C(=O)n1nnc2ccccc21 | 1.77 nM
Cc1ccccc1-n1c(Cn2c(=O)sc3ccccc32)nnc1SCC(=O)N1CCCC1 | 1.05 nM
CCOC(=O)c1c(NC(=O)CN2C(=O)NC3(CCCCCC3)C2=O)sc(C)c1-c1ccc(C)cc1 | 0.76 nM
Cn1c(=O)[nH]c(=O)c2c1nc(CN1CCN(c3cccc(Cl)c3)CC1)n2CCCc1ccccc1 | 1.19 nM
COc1ccc2cc(CN(Cc3ccco3)C(c3nnnn3C3CCCCC3)C(C)C)c(=O)[nH]c2c1 (stereo not given) | 0.76 nM
C=CCOc1nc(-c2ccncc2)nc2ccccc12 | 2.48 nM
Cc1cc(C)c(C)c(Cn2c(CO)nc3ccccc32)c1C | 0.6 nM
Cc1cccc(/C=C/c2nc3ccccc3c(=O)n2Cc2ccccc2)c1 | 2.67 nM
COc1ccc(N(Cc2ccccc2)S(=O)(=O)c2ccc(C)cc2)cc1 | 1.05 nM
CCCCC(CC)CN1CN(CC(CC)CCCC)CC(C)(N)C1 (stereo not given) | 1.05 nM
C[C@H]1CC[C@@H](C(C)(C)O)CC2=C1CC[C@@H]2C | 1.06 nM
CC1=C(/C=C/C(C)=C/C=C/C(C)=C/C(=O)O)C(C)(C)CCC1 | 1.19 nM

SMILES | PGE2 EC50 with compound
C=C[C@@](C)(O)CCC1C(=C)C[C@H](O)C2C(C)(C)CCCC12C (stereo not given in full) | 2.91 nM
O=C(O)c1ccc(CNCc2cccc(Cl)c2Cl)cc1 | 0.88 nM
CCCC(=O)Nc1ccccc1Sc1ncnc2scc(-c3ccccc3)c12 | 1.07 nM
Cc1noc(C)c1CSc1ncnc2sc3c(c12)CCC3 | 0.87 nM
CCOC(=O)CSc1nc(-c2ccccc2)nc2ccccc12 | 0.87 nM
Cc1ccc(N(CC(=O)N/N=C/c2ccc(OC3CSC3)cc2)S(=O)(=O)c2ccccc2)cc1 | 1.01 nM
COc1ccc(-c2nnc3ccc(SCC(=O)Nc4nc5ccccc5s4)nn23)cc1OC | 0.67 nM
OC(COc1ccccc1)Cn1c2ccccc2c2ccccc21 (stereo not given) | 1.4 nM
CCOC(=O)c1ccc(CN(Cc2ccc(C)cc2)S(=O)(=O)c2cccc([N+](=O)[O-])c2)cc1 | 1.62 nM
CCSc1cc(N2CCOCC2)nc(-c2ccccc2)n1 | 1.02 nM
CN(CC(=O)Nc1ccccc1Oc1ccccc1)Cc1ccccc1F | 2.47 nM
CCOP(=O)(OCC)c1nc(-c2cccc3ccccc23)oc1NCc1ccccc1 | 2.48 nM
Cc1ccccc1C(=N)c1ccccc1Cc1cccc2ccccc12 | 0.33 nM
CC(=O)N(Cc1cccs1)Cc1cc2ccc(C)c(C)c2nc1Cl | 1.01 nM
Cc1ccccc1-c1n[nH]c(=S)n1/N=C/c1ccc(-c2ccccc2Br)o1 | 2.42 nM
CC1(c2cc([N+](=O)[O-])cc([N+](=O)[O-])c2)CC(C)(C)N(C(=O)c2ccccc2)c2ccccc21 (stereo not given) | 1.32 nM
CCCc1nc(SC2CCCC2)c2c(=O)n(C)c(=O)n(C)c2n1 | 0.75 nM
CCOC(=O)c1c(-c2cccs2)csc1NC(=O)COC(=O)c1c(C)noc1C | 0.32 nM
O=c1c2ccccc2c(-c2ccc(Br)cc2)nn1Cc1ccccc1 | 0.78 nM
C[C@@H]1CC[C@H]2C(C)(C)C3CC12CC[C@@]3(C)O (stereo not given in full) | 0.32 nM
CCn1c2ccccc2c2nc3ccccc3nc21 | 1.55 nM
CCSc1nc2ccccc2n1Cc1ccccc1F | 0.94 nM
C=CCOc1c(Br)cc(/C=N/n2c(CC)n[nH]c2=S)cc1Br | 0.81 nM
CCOC(=O)c1c(NC(=O)CSc2ncnc3[nH]ncc23)sc2c1CCC(C)C2 (stereo not given) | 0.67 nM
O=C(Nc1ccccc1Oc1ccccc1)c1ccc(Br)o1 | 1.05 nM
Cc1ccc(C2CC2c2n[nH]c(=S)n2-c2ccc(C)cc2)cc1 (stereo not given) | 1.12 nM

SMILES | PGE2 EC50 with compound
CSc1ccccc1NC(=O)COc1ccc(Cl)cc1C | 1.06 nM
CCn1c(-c2ccccc2)c(C(=O)CCl)c2ccccc21 | 1 nM
CCOC(=O)c1ccccc1NC(=O)C(C)Oc1ccccc1 (stereo not given) | 1.35 nM
CCCCc1nc(SCCOC)c2c(=O)n(C)c(=O)n(C)c2n1 | 1.42 nM
COC1(C)CC2C(CC1OC(=O)c1cc([N+](=O)[O-])cc([N+](=O)[O-])c1)C2(C)C (stereo not given) | 2.79 nM
CSc1nnc(-c2cc3c(s2)-c2ccccc2CC3)o1 | 1.15 nM
CCOC(=O)c1c(NC(=O)CSc2nnc(C)s2)sc2c1CCC(C)C2 (stereo not given) | 0.95 nM
CCCCCn1c(SCCC(C)C)nc2c1c(=O)[nH]c(=O)n2C | 1.21 nM
CCC1COC(c2cccn2Cc2ccc(Cl)cc2)=N1 (stereo not given) | 1.27 nM
Cn1c(=O)[nH]c(=O)c2c1nc(CN1CCN(c3ccccc3F)CC1)n2CCCc1ccccc1 | 0.83 nM
Cc1ccc(-n2c(SCC(=O)Nc3ccc4c(c3)OCO4)nnc2-c2ccoc2C)cc1 | 1.18 nM
CC(Sc1ccc2ccccc2n1)C(=O)O (stereo not given) | 3.1 nM and 3.84 nM
CCOC(=O)Cn1c(=S)[nH]c2c(oc3ccc(Cl)cc32)c1=O | 2.77 nM
CCC1CCc2c(sc3ncnc(N4CCOCC4)c23)C1 (stereo not given) | 0.81 nM
COc1cc(-c2nc(-c3cccc(C)c3)no2)cc(OC)c1OC | 1.14 nM
CCCCNc1nc2c(S(=O)(=O)c3ccccc3)nnn2c2ccccc12 | 1.17 nM
COc1ccccc1N(C(=O)NCc1ccccc1)C1=NCC(C)S1 (stereo not given) | 1.58 nM
COc1ccccc1/C=C(/C(=O)OCC(=O)Nc1ccccc1C(C)C)c1ccccc1 | 1.1 nM
CCSc1nnc(-c2ccc(Cl)cc2)c2ccccc12 | 0.76 nM
COc1ccc(C(=O)Nc2ccccc2N2CCCCC2)cc1[N+](=O)[O-] | 1.01 nM
CCOP(=O)(OCC)c1nc(/C=C/c2ccccc2)oc1NCc1ccccc1 | 1.27 nM
CN(C)c1nc(-c2ccccc2)c2cnn(Cc3ccccc3)c2n1 | 1.12 nM
Cc1ccc(NCc2n[nH]c(=S)n2Cc2ccccc2)cc1Cl | 1.2 nM
c1ccc(CCc2cccnc2)nc1 | 1.62 nM
Cc1ccnc(NS(=O)(=O)c2cccs2)c1 | 1.8 nM
O=C(Nc1ccccc1Oc1ccccc1)c1cnccn1 | 0.78 nM

SMILES | PGE2 EC50 with compound
CCOc1nc2cccc(C(=O)OC(C)OC(=O)OC3CCCCC3)c2n1Cc1ccc(-c2ccccc2-c2nn[nH]n2)cc1 (stereo not given) | 1.42 nM
Cc1cc(O)c(C=O)c2c1C(=O)Oc1c(COC(=O)/C=C/C(=O)O)c(O)c(C(=O)O)c(C)c1O2 | 0.54 nM
COc1ccc(-c2nc(NC(C)=O)sc2-c2ccc(OC)cc2)cc1 | 0.95 nM
COc1ccc(OCC(=O)NC(=S)Nc2ccc3c4c(cccc24)CC3)cc1 | 2.85 nM
Cc1ccc(N(C(=O)c2snc(C(N)=O)c2N)C(C(=O)NCCC(C)C)c2ccco2)cc1 (stereo not given) | 2.61 nM
C/C(=N\N=C(c1ccccc1)c1ccccc1)c1ccco1 | 0.97 nM
COC(=O)c1c(NC(=O)CSc2nnc(-c3cccnc3)n2Cc2ccco2)sc(C)c1C | 0.79 nM
c1ccc(-c2n[nH]nc2-c2ccccc2)cc1 | 0.9 nM
Cc1ccc2nc(Nc3ccc4[nH]c(=O)[nH]c4c3)c(-n3nc(C)cc3C)nc2c1 | 2.69 nM
CCOC(=O)c1c(NC(=O)c2cccs2)sc(C)c1CC | 1.51 nM
O=C(O)c1cccc(NN=C2c3ccccc3-c3ccccc32)c1 | 0.8 nM
CC1=C(C(=O)OCc2ccccc2)C(c2ccc(Cl)cc2Cl)NC(=O)N1CCCCCC(=O)O (stereo not given) | 1.23 nM
Cc1ccccc1NC(=O)/C(=C/c1ccccc1)c1ccccc1 | 1.23 nM
Cn1c(=O)c(NCCc2ccccc2)c2c3c(cccc31)C(=O)c1ccccc1-2 | 0.31 nM
Cc1oncc1-c1csc(-c2ccccc2Cl)n1 | 1 nM
CCOC(=O)c1cc(CC)sc1NC(=O)c1cc(OC)c(OC)c(OC)c1 | 0.82 nM
Cc1cc2c3c(c1)C1(SCC(=O)N1c1ccc(F)cc1)C(=O)N3C(C)(C)CC2C (stereo not given) | 2.59 nM
O=c1c2cn[nH]c2nc(SCc2ccccc2F)n1-c1ccc(Br)cc1 | 0.77 nM
C/C(=N\N(Cc1ccccc1)c1ccccc1)c1ccncc1 | 1.48 nM
O=C(Nc1ccccc1N1CCN(c2ccccc2)CC1)C12CC3CC(CC(C3)C1)C2 | 2.52 nM
CCC(=O)N(CC)c1nc(-c2cc(OC)ccc2OC)cs1 | 1.09 nM
CCn1c2ccccc2c2cc([N+](=O)[O-])ccc21 | 0.83 nM
CCOC(=O)/C(N=Nc1c(Br)cc(Br)cc1Br)=C(\C)O | 0.84 nM
